From PubChem BioAssay (NCI)
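Five compound concentrations were applied to cells in 96-well plates for 48 hours; endpoints were derived by simple linear interpolation of the resulting dose-response curve. GI50 = concentration required for 50% inhibition of growth. TGI marks complete inhibition of growth.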 Where a SMILES comes first, the peptide text is derived from it. The star is where a group is joined. Boc = CC(C)(C)OC(=O)*

Legend:
Assay in all cases: DTP human tumour cell line panel, 48 h
ACHN renal = tested on: ACHN renal
EKVX NSCLC = tested on: EKVX NSCLC
MDA-MB-435 = tested on: MDA-MB-435

SMILES	TGI (ACHN renal)	TGI (EKVX NSCLC)	TGI (MDA-MB-435)	GI50 (ACHN renal)	GI50 (EKVX NSCLC)	GI50 (MDA-MB-435)
Cn1cnc(N2CCCC2)c(C#N)c1=S	> 100 µM	> 100 µM	> 100 µM			
Cc1c(Cc2ccccc2)n(C(C)OCCN(OC(=O)Oc2ccccc2)C(=O)Oc2ccccc2)c(=O)[nH]c1=O (stereo unspecified)	57.3 µM	30.4 µM	56.5 µM			
Cc1ccc(/C=C/C(=O)Oc2ccc(/C=C3\CCC/C(=C\c4ccc(OC(=O)/C=C/c5ccc(C)cc5)cc4)C3=O)cc2)cc1	> 100 µM	> 100 µM	> 100 µM			
COc1ccc(-n2c(SC(CN3CCOCC3)CN3CCCC3=O)nc3ccccc3c2=O)cc1 (stereo unspecified)	> 100 µM	> 100 µM	> 100 µM			
COc1cccc2c1NC(=O)Cc1c-2[nH]c2ccccc12	> 100 µM	> 100 µM	> 100 µM			
O=C1c2ccccc2C(=O)N1n1c(Cc2ccc(Cl)cc2)n[nH]c1=O	> 100 µM	> 100 µM	> 100 µM			
CCOC(=O)c1[nH]cc(C)c1-c1cccn1-c1ccc(Cl)cc1[N+](=O)[O-]	> 100 µM	88.4 µM	56.6 µM			
CSc1cc(Cl)c(C)cc1S(=O)(=O)NC(=O)NNc1ccc(F)cc1	> 100 µM	> 100 µM	> 100 µM			
C/C(=N\Nc1nc2cc(Cl)ccc2s1)c1ccccn1	13.4 µM	> 35.5 µM	> 42 µM			
O=C1/C(=C/c2ccc(Cl)cc2)Oc2cc(O)ccc21	61.2 µM	94.3 µM	> 100 µM			
Nn1c(Nc2ccc(S(N)(=O)=O)cc2)nnc(/C=C/c2c(O)ccc3ccccc23)c1=O	> 100 µM	34.2 µM	50.1 µM			
CCC(=O)Nc1cccc(N=Cc2ccc(OC(=O)/C=C\c3ccccc3)cc2)c1	> 75 µM	> 75 µM	> 75 µM			
Cn1c(-c2ccc[se]2)ccc1-c1ccc(C=O)[se]1	> 100 µM	> 100 µM	> 100 µM			
O=c1c2c3c(sc2nc2n1N=CN(c1ccccc1)C2)CCCC3	> 100 µM	> 100 µM	> 100 µM			
CN1CCN(C(=O)CCC(=O)Nc2cc3c(c4ccccc24)-c2ccc4ccccc4c2C3)CC1	3.78 µM	3.13 µM	3.02 µM			
Cc1nn(C(=O)c2ccccc2O)c2c1C(c1ccc(O)cc1O)SC(N)=N2 (stereo unspecified)	> 10 µM	> 10 µM	> 10 µM			
O=c1ccc2ccc(CBr)cc2o1		5.94 µM	10.4 µM			
COc1ccc2nc3c([N+](=O)[O-])ccc(NCCN(C)C)c3c(N)c2c1	2.64 µM	3.79 µM				
CC(=O)C1=C(C)O[C@@H]2O[C@H](COCc3ccccc3)[C@@H](OCc3ccccc3)[C@H](O)[C@@H]2S1	52.5 µM	82.8 µM	38 µM			
Cc1cc2nc3c(C#N)c4c(c(Nc5ccc(F)cc5)n3c2cc1C)CCC4	> 100 µM	> 100 µM	> 100 µM			

SMILES	TGI (ACHN renal)	TGI (EKVX NSCLC)	TGI (MDA-MB-435)	GI50 (ACHN renal)	GI50 (EKVX NSCLC)	GI50 (MDA-MB-435)
COc1cc(CC(C)=O)cc(OC)c1	> 100 µM	> 100 µM	> 100 µM			
COC(=O)C(Cc1ccccc1)NC(=O)C(CS)NC(=O)OC(C)(C)C (stereo not drawn) (Boc-Cys-Phe-OMe; configuration not given here)	> 100 µM	> 100 µM	> 100 µM			
Cc1ccc(S(=O)(=O)N2CCC[C@@H]2C(=O)O[C@@H]2CCC3CC=CC32)cc1 (stereo partly specified)	> 100 µM	> 100 µM	> 100 µM			
CN(c1ccccc1)S(=O)(=O)c1ccc([N+](=O)[O-])cc1	> 100 µM	> 100 µM	> 100 µM			
Cc1cc2c(c(C(=O)NCC(=O)N[C@@H](C)C(=O)OCc3ccccc3)c1)Oc1c(cc(C)cc1C(=O)NCC(=O)N[C@@H](C)C(=O)OCc1ccccc1)S2	> 100 µM	> 100 µM	> 100 µM			
CCOC(=O)c1c(NS(=O)(=O)c2ccc(C)cc2)sc2c1CCCC2	> 100 µM	98.7 µM				
COc1cc(C2c3cc4c(cc3OC(NNC(N)=O)C2C)OCO4)cc(OC)c1OC (stereo unspecified)	> 62.2 µM	99.7 µM				
CC(C)C(Nc1ncnc2nc[nH]c12)C(=O)O (stereo unspecified)	> 100 µM	> 100 µM	> 100 µM			
CCOC(=O)/C=C(/C(=O)OCC)n1cc(C)c(=O)n(Cc2cnnn2COCCOC(C)=O)c1=O	16.5 µM	29.3 µM	38.2 µM			
N#Cc1c(N)oc(-c2ccc([N+](=O)[O-])cc2)c1C#N	72.4 µM	59.6 µM	> 100 µM			
CCN1c2ccccc2NC(=S)c2c1n[nH]c2-c1ccccc1	> 100 µM	> 100 µM	52.5 µM			
O=c1[nH]c(=O)c2ncn(-c3ccc([N+](=O)[O-])cn3)c2[nH]1	> 100 µM	> 100 µM	> 100 µM			
Clc1cc(-c2ccccc2)nc(Nc2nc3ccccc3[nH]2)n1	33.3 µM	49.5 µM	83.4 µM			
COC1/C=C/C=C(/C)Cc2cc(O)c(Cl)c(c2)N(C)C(=O)CC(OC(=O)C(C)C)C2(C)OC2C(C)C2CC1(O)NC(=O)O2 (stereo unspecified)	> 100 µM	> 100 µM	> 100 µM			
COC(=O)Nc1nc2ccc(S(=O)(=O)Nc3ccccn3)cc2[nH]1	> 100 µM	> 100 µM	44.5 µM			
O[C@@H]1C[C@H](Cl)c2c(Cl)sc(Cl)c21	> 100 µM	> 100 µM	> 100 µM			
c1coc(-c2nccc3c2[nH]c2ccccc23)c1	> 100 µM	> 100 µM	> 100 µM			
COc1ccc2c(c1)CC[C@@H]1C2CC[C@]2(C)C(=O)N(CCN(C)C)C(=O)CC12 (stereo partly specified)	> 100 µM	> 100 µM	> 100 µM			
Cn1c2ccc(F)cc2c2ccc3c(c21)C(=O)C=CC3=O	13.7 µM	37.9 µM	38.1 µM			
Cc1cc2cc3cc(C)c(N)cc3nc2cc1N	1.6 µM	1.47 µM	11 µM			

SMILES	TGI (ACHN renal)	TGI (EKVX NSCLC)	TGI (MDA-MB-435)	GI50 (ACHN renal)	GI50 (EKVX NSCLC)	GI50 (MDA-MB-435)
O=c1[nH]c2ccccc2c(O)c1Cc1ccccc1	> 100 µM	> 100 µM	> 100 µM			
CN(C)CN1CSC(=S)N(CN(C)C)C1	> 100 µM	> 100 µM	> 100 µM			
Clc1ccc(CCNC2(c3cc4ccccc4s3)CCCCC2)cc1Cl	63.3 µM	81.3 µM	> 100 µM			
CCn1c2nc(=O)n(CCCCCCCCSC(c3ccccc3)(c3ccccc3)c3ccccc3)c(=O)c-2nc2ccccc21	60.8 µM	> 100 µM	> 100 µM			
COC(C/C(=C/CO[Si](C(C)C)(C(C)C)C(C)C)C(=O)N(C(=O)OC(C)(C)C)c1ccccc1I)OC	> 100 µM		> 100 µM			
CC(=O)OCC1OC(n2cnc3nc(Br)[nH]c(=O)c32)C(OC(C)=O)C1OC(C)=O (stereo unspecified)	> 100 µM	> 100 µM	> 100 µM			
CN(C)Cc1c(O)ccc2c1c1c(n2C)C(=O)c2ccccc2C1=O	> 100 µM	> 100 µM	21.1 µM			
Cn1c(-c2ccc(-c3cc(-c4cccs4)c(-c4cccs4)n3C)cc2)cc(-c2cccs2)c1-c1cccs1	> 100 µM	> 100 µM	> 100 µM			
COc1ccccc1NC(=S)N=Nc1c(O)[nH]c2ccccc12	> 100 µM	> 100 µM	> 100 µM			
O=C1/C(=C/c2ccc(O)cc2)CCCC1CN1CCCCC1 (stereo unspecified)	3.11 µM	7.8 µM	21.3 µM			
Cc1ncc([N+](=O)[O-])n1CC[N+](C)([O-])CCCCn1ccnc1[N+](=O)[O-] (stereo unspecified)	> 100 µM	> 100 µM	> 100 µM			
COC(=O)c1c(O)ccc2c1c1cc3ccccc3cc1n2Cc1cc(OC)cc(OC)c1	> 100 µM	> 100 µM	1.86 µM			
Nc1nc(Cl)cc(OCC2(CO)CCCC2)n1	> 100 µM	> 100 µM	> 100 µM			
O=c1cc(-c2ccccc2)[nH]c2ncccc12	> 100 µM	> 100 µM				
CC(C)NC(=O)OCc1c(COC(=O)NC(C)C)c(-c2ccc[n+](COC(=O)Cc3ccccc3)c2)n2c1CCC2	48.4 µM	> 100 µM	> 100 µM			
CC(C)(C)NC1=NC(C(F)(F)F)(C(F)(F)F)NC(=O)N1	> 100 µM	> 100 µM	> 100 µM			
CCC(C)(C)c1cc(O)c(C(C)(C)CC)cc1O	16.1 µM	14.6 µM	10.9 µM	4.62 µM	2.54 µM	2.62 µM
CC(=O)O[C@H]1C(=O)[C@@]2(C)[C@H]([C@H](OC(=O)c3ccccc3)[C@]3(O)C[C@H](OC(=O)[C@H](O)[C@@H](NC(=O)c4ccccc4)c4ccc5ccccc5c4)C(C)=C1C3(C)C)[C@]1(OC(C)=O)CO[C@@H]1C[C@@H]2O	> 50 µM	> 50 µM	0.0238 µM			
CC(C)=CC1C(C(=O)Oc2ccccc2C(C)C)C1(C)C (stereo unspecified)	33 µM	36.5 µM	> 100 µM			
Fc1ccc(-c2sc(-c3ccsc3)cc2Cc2ccsc2)cc1		> 10 µM	> 10 µM			
